# Earlier results in patent US20060009642A1, “Methods for the synthesis of substituted purines” (IRM LLC, a Delaware Limited Liability Company, priority 2001, published 2006).
# Tested on: cyclin-dependent kinase 1 (CDK1)
# Details: binds to the ATP-binding site; Arris et al., J. Med. Chem. 43, 2797 (2000)
smiles,measurement,value
Nc1nc(OCC2CCCCC2)c2[nH]cnc2n1 [O6-cyclohexylmethylguanine],"inhibition of CDK1, mode of inhibition",competitive inhibitor
